# Reference: patent US8975401B2, “Quinazoline based EGFR inhibitors containing a zinc binding moiety” (Curis, Inc., priority 2006, dated 2015)
# Molecular target: T1, human EGFR (His672-Ala1210) (Homo sapiens, UniProt P00533)
# T1 construct: human EGFR (His672-Ala1210); GST (N); purchased Cell Signaling Technologies; host or cells: baculovirus expression system
# Assay: HTScan EGF Receptor Kinase Assay
# Assay type: biochemical
# Description: The ability of compounds to inhibit receptor kinase (EGFR) activity was assayed using HTSCAN™ EGF Receptor Kinase Assay Kits (Cell Signaling Technologies, Danvers, Mass.). […] The protein was purified by one-step affinity chromatography using glutathione-agarose.
# Immediately transfer enzyme from −80° C. to ice. Allowed enzyme to thaw on ice. […] Returned immediately to ice. […] Incubated reaction plate at room temperature for 30 minutes. […] Added 100 μl/well primary antibody. Incubated at room temperature for 60 minutes. […] Added 100 μl/well diluted antibody. Incubated at room temperature for 30 minutes. […] Incubated at room temperature for 5 minutes.
# T1 sequence (P00533 672-1210): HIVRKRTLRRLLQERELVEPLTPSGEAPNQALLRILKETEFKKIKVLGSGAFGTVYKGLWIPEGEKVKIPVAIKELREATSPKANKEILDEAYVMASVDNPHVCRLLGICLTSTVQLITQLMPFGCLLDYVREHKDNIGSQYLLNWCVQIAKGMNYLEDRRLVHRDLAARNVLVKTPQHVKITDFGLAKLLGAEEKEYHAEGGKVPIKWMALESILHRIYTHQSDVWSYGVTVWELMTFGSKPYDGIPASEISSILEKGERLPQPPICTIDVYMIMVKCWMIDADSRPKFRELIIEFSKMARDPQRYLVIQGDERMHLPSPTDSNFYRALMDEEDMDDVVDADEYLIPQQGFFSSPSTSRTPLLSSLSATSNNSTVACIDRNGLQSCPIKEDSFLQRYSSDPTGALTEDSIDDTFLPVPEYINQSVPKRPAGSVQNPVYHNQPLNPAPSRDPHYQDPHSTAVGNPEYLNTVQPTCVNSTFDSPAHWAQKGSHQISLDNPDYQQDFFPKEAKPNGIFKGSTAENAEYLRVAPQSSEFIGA
row,IC50,SMILES
1,< 100 nM,"C#Cc1cccc(Nc2ncnc3cc(OCCOC)c(OCCCCCCC(=O)NO)cc23)c1 [Compound 36, 7-(4-(3-Ethynylphenylamino)-7-(2-methoxyethoxy)quinazolin-6-yloxy)-N-hydroxyheptanamide]"
2,< 100 nM,"COCCOc1cc2ncnc(Nc3ccc(F)c(Cl)c3)c2cc1NC(=O)CCCCC(=O)NO [Compound 69, N^1-(4-(3-chloro-4-fluorophenylamino)-7-(2-methoxyethoxy)quinazolin-6-yl)-N^6-hydroxyadipamide]"
3,< 100 nM,COc1cc2ncnc(Nc3ccc(F)c(Cl)c3)c2cc1OCCCCCCC(=O)N(C)O [Compound 94]
4,> 10000 nM,"COc1ccc([C@@H](C)Nc2ncnc3cc(OC)c(OCCCCCCC(=O)NO)cc23)cc1 [Compound 83, (R)—N-hydroxy-7-(7-methoxy-4-(1-(4-methoxyphenyl)ethylamino)quinazolin-6-yloxy)-heptanamide]"
5,< 100 nM,"C#Cc1cccc(Nc2ncnc3cc(OC)c(OCCCC(=O)NO)cc23)c1 [Compound 9, 4-(4-(3-ethynylphenylamino)-7-methoxyquinazolin-6-yloxy)-N-hydroxybutanamide]"
6,< 100 nM,"COc1cc2ncnc(Nc3ccc(F)c(Cl)c3)c2cc1OCC(=O)NO [Compound 1, 2-(4-(3-Chloro-4-fluorophenylamino)-7-methoxyquinazolin-6-yloxy)-N-hydroxyacetamide]"
7,100 to 1000 nM,Nc1cc(Br)ccc1NC(=O)COc1ccc2ncnc(Nc3ccc(F)c(Cl)c3)c2c1 [Compound 45]
8,< 100 nM,"COc1cc2ncnc(Nc3ccc(F)c(Cl)c3)c2cc1NC(=O)CCCC(=O)NO [Compound 38, N^1-(4-(3-chloro-4-fluorophenylamino)-7-methoxyquinazolin-6-yl)-N^5-hydroxyglutaramide]"
9,< 100 nM,COc1cc2ncnc(Nc3ccc(F)c(Cl)c3)c2cc1NC(=O)Nc1ccc(C(=O)NO)cc1 [Compound 93]
10,< 100 nM,"C#Cc1cccc(Nc2ncnc3ccc(OCC(=O)NO)cc23)c1 [Compound 19, 2-(4-(3-ethynylphenylamino)quinazolin-6-yloxy)-N-hydroxyacetamide]"
11,100 to 1000 nM,C[C@@H](Nc1ncnc2ccc(OCCCCCC(=O)NO)cc12)c1ccccc1 [Compound 50]
12,100 to 1000 nM,"C#Cc1cccc(Nc2ncnc3ccc(OCCCCCC(=O)NO)cc23)c1 [Compound 23, 6-(4-(3-ethynylphenylamino)quinazolin-6-yloxy)-N-hydroxyhexanamide]"
13,< 100 nM,C#Cc1cccc(Nc2ncnc3ccc(OCCCCC(=O)NO)cc23)c1 [Compound 22]
14,100 to 1000 nM,"C#Cc1cccc(Nc2ncnc3ccc(OCCCC(=O)NO)cc23)c1 [Compound 21, 4-(4-(3-ethynylphenylamino)quinazolin-6-yloxy)-N-hydroxybutanamide]"
15,< 100 nM,"O=C(COc1ccc2ncnc(Nc3ccc(F)c(Cl)c3)c2c1)NO [Compound 13, 2-(4-(3-chloro-4-fluorophenylamino)quinazolin-6-yloxy)-N-hydroxyacetamide]"
16,< 100 nM,O=C(CCOc1ccc2ncnc(Nc3ccc(F)c(Cl)c3)c2c1)NO [Compound 14]
17,< 100 nM,"COc1cc2ncnc(N[C@H](C)c3ccccc3)c2cc1OCCCCCC(=O)NO [Compound 77, (R)—N-hydroxy-6-(7-methoxy-4-(1-phenylethylamino)quinazolin-6-yloxy)-hexanamide]"
18,< 100 nM,COc1cc2ncnc(Nc3ccc(F)c(Cl)c3)c2cc1OCCCCC(=O)NO [Compound 4]
19,< 100 nM,"COCCOc1cc2ncnc(Nc3ccc(F)c(Cl)c3)c2cc1NC(=O)CCCC(=O)NO [Compound 68, N^1-(4-(3-chloro-4-fluorophenylamino)-7-(2-methoxyethoxy)quinazolin-6-yl)-N^5-hydroxyglutaramide]"
20,100 to 1000 nM,"C#Cc1cccc(Nc2ncnc3ccc(OCCCCCCC(=O)NO)cc23)c1 [Compound 24, 7-(4-(3-ethynylphenylamino)quinazolin-6-yloxy)-N-hydroxyheptanamide]"
21,< 100 nM,C#Cc1cccc(Nc2ncnc3cc(OC)c(OCCC(=O)NO)cc23)c1 [Compound 8]
22,< 100 nM,"C#Cc1cc(Nc2ncnc3cc(OC)c(OCCCCCCC(=O)NO)cc23)ccc1F [Compound 75, 7-(4-(3-ethynyl-4-fluorophenylamino)-7-methoxyquinazolin-6-yloxy)-N-hydroxyheptanamide]"
23,< 100 nM,COc1cc2ncnc(Nc3ccc(F)c(Cl)c3)c2cc1OCCOc1ccc(CC(=O)NO)cc1 [Compound 91]
24,100 to 1000 nM,"COc1cc2ncnc(NCc3cccc(Br)c3)c2cc1OCCCCCCC(=O)NO [Compound 89, 7-(4-(3-bromobenzylamino)-7-methoxyquinazolin-6-yloxy)-N-hydroxyheptanamide]"
25,100 to 1000 nM,COc1cc2ncnc(NCCc3ccccc3)c2cc1OCCCCCCC(=O)NO [Compound 84]
26,< 100 nM,"O=C(CCCCOc1ccc2ncnc(Nc3ccc(F)c(Cl)c3)c2c1)NO [Compound 16, 5-(4-(3-chloro-4-fluorophenylamino)quinazolin-6-yloxy)-N-hydroxypentanamide]"

row,SMILES,IC50
1,"COc1cc2ncnc(N[C@H](C)c3ccc(Cl)cc3)c2cc1OCCCCCCC(=O)NO [Compound 82, (R)-7-(4-(1-(4-chlorophenyl)ethylamino)-7-methoxyquinazolin-6-yloxy)-N-hydroxyheptanamide]",100 to 1000 nM
2,"COCCOc1cc2ncnc(Nc3ccc(F)c(Cl)c3)c2cc1OCCCCCCC(=O)NO [Compound 30, 7-(4-(3-Chloro-4-fluorophenylamino)-7-(2-methoxyethoxy)quinazolin-6-yloxy)-N-hydroxyheptanamide]",< 100 nM
3,"COc1cc2ncnc(Nc3ccc(F)c(Cl)c3)c2cc1OCCCC(=O)NO [Compound 3, 4-(4-(3-Chloro-4-fluorophenylamino)-7-methoxyquinazolin-6-yloxy)-N-hydroxybutanamide]",< 100 nM
4,"O=C(CCCCCCOc1ccc2ncnc(Nc3ccc(F)c(Cl)c3)c2c1)NO [Compound 18, 7-(4-(3-chloro-4-fluorophenylamino)quinazolin-6-yloxy)-N-hydroxyheptanamide]",< 100 nM
5,"COc1cc2ncnc(Nc3ccc(F)c(Cl)c3)c2cc1NC(=O)CCCCCCC(=O)NO [Compound 40, N^1-(4-(3-chloro-4-fluorophenylamino)-7-methoxyquinazolin-6-yl)-N^8-hydroxyoctanediamide]",< 100 nM
6,"COc1cc2ncnc(NCc3ccc(F)c(Cl)c3)c2cc1OCCCCCCC(=O)NO [Compound 88, 7-(4-(3-chloro-4-fluorobenzylamino)-7-methoxyquinazolin-6-yloxy)-N-hydroxyheptanamide]",< 100 nM
7,COc1cc2ncnc(Nc3ccc(F)c(Cl)c3)c2cc1OCCC(=O)NO [Compound 2],< 100 nM
8,"C#Cc1cccc(Nc2ncnc3cc(OC)c(OCCCCCC(=O)NO)cc23)c1 [Compound 11, 6-(4-(3-ethynylphenylamino)-7-methoxyquinazolin-6-yloxy)-N-hydroxyhexanamide]",< 100 nM
9,COc1cc2ncnc(Nc3ccc(F)c(Cl)c3)c2cc1OCCCCCC(=O)NO [Compound 5],< 100 nM
10,"COc1cc2ncnc(N[C@H](C)c3ccc(F)cc3)c2cc1OCCCCCCC(=O)NO [Compound 81, (R)-7-(4-(1-(4-fluorophenyl)ethylamino)-7-methoxyquinazolin-6-yloxy)-N-hydroxyheptanamide]",100 to 1000 nM
